From US20250127754A1, “Pharmaceutical Application of Dimyricetin-yl-diselenide in Atherosclerosis” (Shanghai Spark Pharmaceutical Co., Ltd., priority 2023, published 2025)
Entries after “also recorded” stand apart in the source; their conditions may differ.

Assays:
Type in all cases: in vivo
ApoE−/− mice [1] = assay: Heart weight and heart weight index (tibial length corrected); conditions: 10 weeks QD: Atorvastatin 20 mg/kg P.O., AQ-C-a 300 mg/kg P.O., DMS-ASD 300 mg/kg P.O., DMS 20 mg/kg SC; for Heart: heart weight at end of experiment (week 18)
Method: At the experimental endpoint, hearts and tibias were collected. The heart was weighed and its weight index was calculated using tibial length for correction, with the formula: Heart Index=Heart Weight (g)/Tibial Length (cm)×100%. The heart was fixed in 4% PFA and subjected to HE staining to evaluate fat plaques in the outflow tract.

ApoE−/− mice [2] = assay: Aortic fat plaque examination (oil red O staining); conditions: for Effect on percentage of aortic plaque (in words): end of 18th week, compared with the model group; for % Patch area (aortic plaque): week 18, oil red staining of aorta, 10 weeks QD: Atorvastatin 20 mg/kg P.O., AQ-C-a 300 mg/kg P.O., DMS-ASD 300 mg/kg P.O., DMS 20 mg/kg SC
Method: (§1) Upon arrival, ApoE−/− mice were acclimatized to the experimental facility for 3 days. After an overnight fast (12 hours), blood samples were collected to measure baseline levels of serum lipids (TC, TG, HDL-C, LDL-C) and LDH. Control mice were fed a regular diet, while the remaining mice were fed a high-fat diet for 18 weeks. The regular diet contained 11% kcal fat and 0% cholesterol, while the high-fat diet contained 40% kcal fat and 0.21% cholesterol. At 8 weeks of high-fat feeding, the animals underwent echocardiography and blood biochemical tests. Based on their TC values, they were randomly assigned to the following groups: blank control, model control, positive control, AQ-C-a, DMS-ASD, and DMS (refer to Table 2 in Section 6.5). Drug administration continued for 10 weeks. During the experiment, the animals' appearance, behavior, and physical condition were observed, and their body weight, echocardiography, serum lipids (TC, TG, HDL-C, and LDL-C), and blood biochemistry (LDH, SOD, and MDA) were monitored. At the end of the experiment (Week 18), hearts and aortas were collected for Oil Red O staining and histopathological analysis.
Aortic oil red O staining was performed. The experimental endpoint was set at Week 10 post-treatment. After euthanasia, the aorta was collected from the aortic arch to the iliac artery and subjected to oil red O staining to analyze the accumulation of fat plaques in the aorta.

ApoE−/− mice [3] = assay: Blood lipids (TG, TC, HDL-C, LDL-C) in plasma, high-fat diet atherosclerosis model; design: TG / TC / HDL-C / LDL-C: unit not given here; conditions: for Effect on LDL-c (in words) / Effect on TC (in words): compared to the model group
Method: as §1
(§2) Animals were fasted the night before blood collection. Blood samples were collected and anticoagulated with heparin to prepare plasma for the detection of TG, TC, HDL-C, LDL-c, and LDH. Blood was collected at six time points: Week 0, Week 8, Week 10, Week 12, Week 16, and Week 18. SOD and MDA levels were measured at Week 16 and Week 18.

ApoE−/− mice [4] = assay: Plasma SOD and MDA, high-fat diet atherosclerosis model; design: MDA: unit not given here; conditions: QD: Atorvastatin 20 mg/kg P.O., AQ-C-a 300 mg/kg P.O., DMS-ASD 300 mg/kg P.O., DMS 20 mg/kg SC
Method: as §1, §2

ApoE−/− mice [5] = assay: Body weight, high-fat diet atherosclerosis model; conditions: HFD-fed ApoE−/− mice, compared with control group; FIG. 1
Method: as §1
All animals were given medicine […] once a day during the medication period;

ApoE−/− mice [6] = assay: Plasma LDH content, high-fat diet atherosclerosis model; design: LDH: unit not given here
From the text: Upon arrival, ApoE−/− mice were acclimatized to the experimental facility for 3 days. […] Control mice were fed a regular diet, while the remaining mice were fed a high-fat diet for 18 weeks. […] At 8 weeks of high-fat feeding, the animals underwent echocardiography and blood biochemical tests. […] Drug administration continued for 10 weeks. During the experiment, the animals' appearance, behavior, and physical condition were observed, and their body weight, echocardiography, serum lipids (TC, TG, HDL-C, and LDL-C), and blood biochemistry (LDH, SOD, and MDA) were monitored. At the end of the experiment (Week 18), hearts and aortas were collected for Oil Red O staining and histopathological analysis. Animals were fasted the night before blood collection. Blood samples were collected and anticoagulated with heparin to prepare plasma for the detection of TG, TC, HDL-C, LDL-c, and LDH.

[7] = week 0, baseline before HFD and dosing, fasted plasma, mean±standard error
[8] = week 8 of HFD, before start of dosing, fasted plasma
[9] = week 10 of HFD (2 weeks dosing), QD: Atorvastatin 20 mg/kg P.O., AQ-C-a 300 mg/kg P.O., DMS-ASD 300 mg/kg P.O., DMS 20 mg/kg SC
[10] = week 12 of HFD (4 weeks dosing), QD: Atorvastatin 20 mg/kg P.O., AQ-C-a 300 mg/kg P.O., DMS-ASD 300 mg/kg P.O., DMS 20 mg/kg SC
[11] = week 16 of HFD (8 weeks dosing), QD: Atorvastatin 20 mg/kg P.O., AQ-C-a 300 mg/kg P.O., DMS-ASD 300 mg/kg P.O., DMS 20 mg/kg SC
[12] = week 18 of HFD (10 weeks dosing), QD: Atorvastatin 20 mg/kg P.O., AQ-C-a 300 mg/kg P.O., DMS-ASD 300 mg/kg P.O., DMS 20 mg/kg SC

Compound: CC(C)c1c(C(=O)Nc2ccccc2)c(-c2ccccc2)c(-c2ccc(F)cc2)n1CC[C@@H](O)C[C@@H](O)CC(=O)O [Atorvastatin, reference compound]
- Heart (ApoE−/− mice [1]): 0.192 ± 0.009 g
- Effect on percentage of aortic plaque (in words) (ApoE−/− mice [2]): significantly reduced
- % Patch area (aortic plaque) (ApoE−/− mice [2]): 6.86 ± 1.21 %
- Effect on LDL-c (in words) (ApoE−/− mice [3]): significantly reduced
- Effect on TC (in words) (ApoE−/− mice [3]): significantly reduced
- HDL-C (ApoE−/− mice [3]; [7]): 1.53 ± 0.15
- LDL-C (ApoE−/− mice [3]; [7]): 5.63 ± 0.34
- TC (ApoE−/− mice [3]; [7]): 10.12 ± 0.84
- TG (ApoE−/− mice [3]; [7]): 1.79 ± 0.14
- HDL-C (ApoE−/− mice [3]; [8]): 1.36 ± 0.13
- LDL-C (ApoE−/− mice [3]; [8]): 22.23 ± 1.6
- TC (ApoE−/− mice [3]; [8]): 28.87 ± 2.19
- TG (ApoE−/− mice [3]; [8]): 1.35 ± 0.17
- HDL-C (ApoE−/− mice [3]; [9]): 1.51 ± 0.06
- LDL-C (ApoE−/− mice [3]; [9]): 16.31 ± 0.92
- TC (ApoE−/− mice [3]; [9]): 22.38 ± 1.25
- TG (ApoE−/− mice [3]; [9]): 2.31 ± 0.18
- HDL-C (ApoE−/− mice [3]; [10]): 1.59 ± 0.09
- LDL-C (ApoE−/− mice [3]; [10]): 20.24 ± 2
- TC (ApoE−/− mice [3]; [10]): 27.29 ± 2.61
- TG (ApoE−/− mice [3]; [10]): 2.2 ± 0.13
- HDL-C (ApoE−/− mice [3]; [11]): 2.53 ± 0.12
- LDL-C (ApoE−/− mice [3]; [11]): 14.32 ± 1.08
- TC (ApoE−/− mice [3]; [11]): 19.14 ± 1.34
- TG (ApoE−/− mice [3]; [11]): 1.99 ± 0.2
- HDL-C (ApoE−/− mice [3]; [12]): 2.5 ± 0.18
- LDL-C (ApoE−/− mice [3]; [12]): 13.87 ± 1.51
- TC (ApoE−/− mice [3]; [12]): 18.89 ± 2.11
- TG (ApoE−/− mice [3]; [12]): 1.51 ± 0.09
- SOD (ApoE−/− mice [4]; week 16 (8 weeks dosing)): 0.87 ± 0.09 U/mL
- SOD (ApoE−/− mice [4]; week 18 (10 weeks dosing)): 0.99 ± 0.09 U/mL
- Effect on body weight (in words) (ApoE−/− mice [5]): significantly greater than those in the control group
- LDH (ApoE−/− mice [6]; [7]): 948.67 ± 117.19
- LDH (ApoE−/− mice [6]; [8]): 1176.67 ± 142.27
- LDH (ApoE−/− mice [6]; [9]): 620 ± 62.03
- LDH (ApoE−/− mice [6]; [10]): 422.67 ± 50.59
- LDH (ApoE−/− mice [6]; [11]): 384 ± 25.93
- LDH (ApoE−/− mice [6]; [12]): 1384.67 ± 191.24

Compound: Dimyricetin-yl-diselenide [DMS]
- Heart (ApoE−/− mice [1]): 0.169 ± 0.010 g
- Cardiac weight index (ApoE−/− mice [1]; heart weight/tibial length, week 18): 0.095 ± 0.006 g/cm
- Effect on percentage of aortic plaque (in words) (ApoE−/− mice [2]): statistically significant compared with the model group; also recorded: reducing the area
- % Patch area (aortic plaque) (ApoE−/− mice [2]): 8.43 ± 0.95 %
- Effect on LDL-c (in words) (ApoE−/− mice [3]): trend of reducing; also recorded: inhibiting the increase
- Effect on TC (in words) (ApoE−/− mice [3]): trend of reducing; also recorded: inhibiting the increase
- HDL-C (ApoE−/− mice [3]; [7]): 1.63 ± 0.12
- LDL-C (ApoE−/− mice [3]; [7]): 6.07 ± 0.19
- TC (ApoE−/− mice [3]; [7]): 11.84 ± 0.85
- TG (ApoE−/− mice [3]; [7]): 1.99 ± 0.14
- HDL-C (ApoE−/− mice [3]; [8]): 1.38 ± 0.15
- LDL-C (ApoE−/− mice [3]; [8]): 22.09 ± 1.86
- TC (ApoE−/− mice [3]; [8]): 28.69 ± 2.34
- TG (ApoE−/− mice [3]; [8]): 1.26 ± 0.07
- HDL-C (ApoE−/− mice [3]; [9]): 1.44 ± 0.07
- LDL-C (ApoE−/− mice [3]; [9]): 23.38 ± 1.46
- TC (ApoE−/− mice [3]; [9]): 30.95 ± 1.95
- TG (ApoE−/− mice [3]; [9]): 2.14 ± 0.1
- HDL-C (ApoE−/− mice [3]; [10]): 1.44 ± 0.07
- LDL-C (ApoE−/− mice [3]; [10]): 23.38 ± 1.46
- TC (ApoE−/− mice [3]; [10]): 32.35 ± 1.96
- TG (ApoE−/− mice [3]; [10]): 2.29 ± 0.2
- HDL-C (ApoE−/− mice [3]; [11]): 2.27 ± 0.15
- LDL-C (ApoE−/− mice [3]; [11]): 21.1 ± 1.23
- TC (ApoE−/− mice [3]; [11]): 27.78 ± 1.36
- TG (ApoE−/− mice [3]; [11]): 2.71 ± 0.35
- HDL-C (ApoE−/− mice [3]; [12]): 2.1 ± 0.19
- LDL-C (ApoE−/− mice [3]; [12]): 15.94 ± 1.32
- TC (ApoE−/− mice [3]; [12]): 20.92 ± 1.78
- TG (ApoE−/− mice [3]; [12]): 1.27 ± 0.06
- MDA (ApoE−/− mice [4]; week 16 (8 weeks dosing)): 7.19 ± 1.15
- SOD (ApoE−/− mice [4]; week 16 (8 weeks dosing)): 1.06 ± 0.14 U/mL
- MDA (ApoE−/− mice [4]; week 18 (10 weeks dosing)): 6.08 ± 0.50
- SOD (ApoE−/− mice [4]; week 18 (10 weeks dosing)): 0.87 ± 0.03 U/mL
- Effect on body weight (in words) (ApoE−/− mice [5]): stabilized from the 10th to 11th week and overlapped with the control group's weight curve by the 14th week; also recorded: inhibiting the increase
- Effect on plasma LDH (in words) (ApoE−/− mice [6]; 18th week, compared to the model group, P<0.05): significant reductions; also recorded: inhibiting the increase
- LDH (ApoE−/− mice [6]; [7]): 1083.25 ± 375.4
- LDH (ApoE−/− mice [6]; [8]): 1022.5 ± 112.95
- LDH (ApoE−/− mice [6]; [9]): 401.5 ± 22.95
- LDH (ApoE−/− mice [6]; [10]): 368.5 ± 26.82
- LDH (ApoE−/− mice [6]; [11]): 361.88 ± 20.78
- LDH (ApoE−/− mice [6]; [12]): 719 ± 81.08
